In paper PMC8080777, “Discovery, optimization, and evaluation of non-bile acid FXR/TGR5 dual agonists” (Scientific Reports, 2021):
Several values for one entry are separate records, joined by “and”; a condition that tells them apart may be missing. Identical values can stand only once.

Tests used:
TGR5 [1] = molecular target: T1, TGR5 (Homo sapiens, UniProt Q8TDU6); assay: TGR5 cAMP assay in CHO cells transfected with TGR5 (cAMP Hunter eXpress, Discover X); assay type: cell-based
T1 construct: host or cells: CHO cells
T1 sequence (Q8TDU6 1-330): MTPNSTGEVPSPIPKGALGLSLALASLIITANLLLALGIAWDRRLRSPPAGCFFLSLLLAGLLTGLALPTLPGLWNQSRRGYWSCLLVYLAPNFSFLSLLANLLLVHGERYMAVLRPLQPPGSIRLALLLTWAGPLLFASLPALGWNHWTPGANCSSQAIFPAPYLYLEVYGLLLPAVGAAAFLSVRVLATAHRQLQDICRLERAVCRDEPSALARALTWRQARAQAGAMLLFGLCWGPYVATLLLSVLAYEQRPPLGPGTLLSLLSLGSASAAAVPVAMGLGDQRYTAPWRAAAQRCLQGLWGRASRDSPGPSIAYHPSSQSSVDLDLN
Description: TGR5 agonist activity was evaluated by transfecting CHO cells with TGR5 using the Discover X expression kit (cAMP Hunter eXpress GPCR Assay, Discover X Fremont, CA). Cells were incubated with test compounds for 0.5 h, and intracellular cAMP levels were measured using the multi-mode microplate reader.
(§1) TGR5 agonist activity was evaluated by transfecting CHO cells with TGR5 using the Discover X expression kit (cAMP Hunter eXpress Assay Kit, Discover X Fremont, CA, USA). Cells were incubated with the test compounds for 0.5 h, and intracellular cAMP levels were measured using Multi-Mode Microplate Reader (FlexStation 3, Molecular Devices Inc., San Jose, CA, USA).
Each compound was tested at concentrations of 10, 1, or 0.1 µM in duplicate (n = 2), with the average value shown.
S4. In vitro, in vivo assay, and selectvity. […]
In vitro TGR5 agonist assay protocol
as §1
Each compound was tested at concentrations of 10, 1, or 0.1 µM in duplicate (n=2), with the […]
parameter logistic equation, Y = min + (max - min)/(1 + 10^(n * (log10(EC50) - log10(conc)))), in […]

FXR [2] = details: cited from earlier work
TGR5 [3] = molecular target: T1, TGR5; details: cited from earlier work
FXR [4] = molecular target: T2, FXR (Homo sapiens, UniProt Q96RI1); assay: CHO cell-based FXR luciferase reporter assay (Indigo Biosciences); details: for FXR Efficacy (%) (0.1 µM) / FXR Efficacy (%) (1 µM): % vs OCA 1 µM as 100%
T2 construct: host or cells: CHO cells
T2 sequence (Q96RI1 1-486): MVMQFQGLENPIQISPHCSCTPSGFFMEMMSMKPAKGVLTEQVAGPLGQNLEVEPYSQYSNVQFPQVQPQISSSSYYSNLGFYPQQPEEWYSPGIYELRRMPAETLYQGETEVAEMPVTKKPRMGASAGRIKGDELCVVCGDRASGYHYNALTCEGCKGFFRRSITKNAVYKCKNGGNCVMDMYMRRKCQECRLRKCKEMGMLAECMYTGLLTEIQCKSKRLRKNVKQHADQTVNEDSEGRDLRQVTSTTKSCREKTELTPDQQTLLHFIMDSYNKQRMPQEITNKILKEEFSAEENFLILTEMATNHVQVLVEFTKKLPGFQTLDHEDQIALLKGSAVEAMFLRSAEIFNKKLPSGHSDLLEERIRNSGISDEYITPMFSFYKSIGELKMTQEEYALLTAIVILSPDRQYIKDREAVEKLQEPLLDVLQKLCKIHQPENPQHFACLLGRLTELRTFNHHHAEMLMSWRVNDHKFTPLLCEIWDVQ
Description: To evaluate direct agonist activities against FXR, test compounds were evaluated using a CHO cell-based FXR assay by Indigo Biosciences (State College, PA), in which cells were transfected with an FXR luciferase reporter system.
To directly evaluate the in vitro agonist activity towards FXR, test compounds were evaluated in CHO cells transfected with FXR responsive luciferase reporter (Nuclear Receptor & In Vitro Toxicology Solutions, Indigo Biosciences, State College, PA, USA). […] Each compound was tested in duplicate, and the average value was reported[35],[36].
(§2) The cell recovery medium (CRM, Human Farnesoid X Receptor (NR1H4, FXR reporter assay system, Indigo Biosciences, State College, PA, USA) and compound screening medium (CSM, Human Farnesoid X Receptor (NR1H4, FXR reporter assay system, Indigo Biosciences, State College, PA, USA) were removed from the freezer and thawed in a water bath at 37 °C. Test compounds were dissolved in dimethyl sulfoxide (DMSO, FUJIFILM Wako Pure Chemical Corporation, Osaka city, Osaka, Japan), and the treatment medium was prepared and diluted with CSM to achieve a final concentration of 0.2% total DMSO. The reporter cells were thawed by transferring 3.3 mL CRM at 37 °C into tubes of frozen cells. The tube containing reporter cells was recapped, and it was immediately place in a 37 °C water bath for 5 min. The reporter cells were gently inverted several times, and 100 µL cell suspension was dispensed into each well. One hundred microliters of treatment media was added into wells. Subsequently, the assay plate was kept at 37 °C, and it was incubated with 5% CO2 for 22 h. To prepare luciferase detection reagent (LDR), the detection substrate was gently mixed with detection buffer, media contents were removed from each well, and 100 µL LDR was added to each well of the assay plate. The assay plate was allowed to rest at room temperature for 5 min, and luminescence was quantified using the Multi-Mode Microplate Reader (FlexStation 3, Molecular Devices Inc., San Jose, CA, USA)[36].
S4. In vitro, in vivo assay, and selectvity.
To directly evaluate the in vitro agonist activity towards FXR, test compounds were evaluated in CHO cells transfected with FXR responsive luciferase reporter (Nuclear Receptor & In Vitro Toxicology Solutions, Indigo Biosciences, State College, PA, USA). Cells were incubated with […]
(FlexStation 3, Molecular Devices Inc., San Jose, CA, USA). Efficacies are reported relative to […]
reporter on of 1 µM. Each compound was tested in duplicate, and the average value was […]
as §2, with “sulfoxide (DMSO ,” for “sulfoxide (DMSO,”, “Osaka, Jap an),” for “Osaka, Japan),”, “a 37°C” for “a 37 °C”, “5% CO 2” for “5% CO2”, “using […]” for “using the Multi-Mode Microplate Reader (FlexStation 3, Molecular Devices Inc., San Jose, CA, USA)[36].”

Compound	TGR5 Efficacy (%) (0.1 µM) (TGR5 [1]; 0.1 µM, % vs INT-767 10 µM as 100%)	TGR5 Efficacy (%) (1 µM) (TGR5 [1]; % vs INT-767 10 µM as 100%)	Reported FXR activity (in words) (FXR [2])	Reported TGR5 activity (in words) (TGR5 [3])	FXR Efficacy (%) (0.1 µM) (FXR [4])	FXR Efficacy (%) (1 µM) (FXR [4])	TGR5 Efficacy (%) (10 µM) (TGR5 [1]; % vs INT-767 10 µM as 100%)	TGR5 agonist activity (in words) (TGR5 [1])	FXR agonist activity (in words) (FXR [4])
Cc1cc2c(CN(C(=O)c3ccncc3C)c3ccc(F)cc3C)cccc2[nH]1 [Compound 8, reference compound]	84.7	84.7% and 66.1%	no agonist or antagonist activity against FXR	TGR5 agonist					
Cc1cnccc1C(=O)N(CC12CCC(c3ccc4c(c3)OCO4)(CC1)CC2)c1cc(Cl)cc(Cl)c1 [Compound 20n]					73.5	98.9	67.6		
COc1cc(Cl)cc(N(CC23CCC(c4ccc5c(c4)OCO5)(CC2)CC3)C(=O)c2ccncc2C)c1 [Compound 20o]		36.0%			29.4	97.6	78.9		
Cc1cnccc1C(=O)N(CC12CCC(c3ccc4c(c3)OCCO4)(CC1)CC2)c1cc(Cl)cc(Cl)c1 [Compound 20r]		57.1%			28.0	72.6		most potent TGR5 activity	
Cc1cnccc1C(=O)N(CC12CCC(c3ccc(N(C)C)cc3)(CC1)CC2)c1cc(Cl)cc(Cl)c1 [Compound 20s]		18.9%			56.4	95.3			high potency against FXR
COc1cc(Cl)cc(N(CC23CCC(c4ccc(N(C)C)cc4)(CC2)CC3)C(=O)c2ccncc2C)c1 [Compound 20t]		25.0%			32.8	77.3			
COc1ncc(C23CCC(CN(C(=O)c4ccncc4C)c4cc(Cl)cc(Cl)c4)(CC2)CC3)cc1C [Compound 20u]		12.1%			69.2	76.2			
COc1ccc(C23CCC(CN(C(=O)c4ccncc4C)c4cc(Cl)cc(Cl)c4)(CC2)CC3)cc1Cl [Compound 20v]		33.5%			65.4	79.6			
